Assay results taken from patent US20150297718A1, “ION[…] OF CATIONIC PRODRUGS FOR TOPICAL TREATMENT OF MUSCU[…] SKIN DISEASES” (priority 2014, published 2015).
Like-named read-outs stand apart in the source and are kept apart here.

How the values were obtained:
[1] = In vivo rat study of iontophoresis delivery on dorsal back skin: tissue and plasma drug concentrations; settings: for Drug concentration in the skin: delivered drug (prodrug or ketoprofen); for Concentration of ketoprofen converted from the prodrug in the skin: number in bracket
Procedure: (§1) The anode iontophoresis of ketoprofen cationic prodrugs KCE, KME and cathode iontophoresis of ketoprofen were compared with an in vivo rat study for evaluation of drug penetration into deep tissues. […] A prodrug solution was loaded in the cell. A constant current of 0.4 mA/cm^2 for iontophoresis was applied for 6 hours. At the end of the iontophoresis delivery, the rats were euthanized. The skin of the application site (under the glass cell) was washed with water, tape stripped once to remove residue drug on skin, and then dissected with a biopsy punch for the tissue layers: epidermis and dermis layer (depth 0-3 mm), subcutaneous tissue (fat pad) (3-4 mm), shallow muscle layer (4-6 mm), and deep muscle (6-10 mm). The tissues from the contralateral site were dissected with the same method. In addition, the plasma blood samples were obtained right before the experiment (time 0) and each hour during the experiment. The drug concentrations in the tissue and plasma samples were analyzed with a HPLC.
as §1, with “cationic prodrugs and cathode” for “cationic prodrugs KCE, KME and cathode”, “ketoprofen were also compared with” for “ketoprofen were compared with”, “rat study at 0.4 mA/cm^2 for a shorter duration of 2 hours for evaluation” for “rat study for evaluation”, “applied for 2 hours. At” for “applied for 6 hours. At”
as §1, with “cationic prodrugs and cathode” for “cationic prodrugs KCE, KME and cathode”, “ketoprofen were also compared with” for “ketoprofen were compared with”, “rat study at 0.057 mA/cm^2 for a duration of 6 hours for evaluation” for “rat study for evaluation”, “current of 0.057 mA/cm^2 for” for “current of 0.4 mA/cm^2 for”, “with a HPLC” for “with a HPLC.”
KPE is a prodrug of ketoprofen but with two methyl groups on the nitrogen atom, instead of three methyl groups on the nitrogen atom like KCE and KME. KPE can be presented as a hydrochloride salt. […] Anode iontophoresis delivery of KPE in this aqueous solution at 0.4 mA/cm^2 for a shorter duration of 2 hour was also conducted with the in vivo rat study.

melanoma cell (A375) = experiment: In vitro cell viability assay on melanoma cell growth; assay type: cell-based; settings: read-out: 50% inhibition concentration (IC50) on melanoma cell (A375) growth
Source text: The drug concentrations in the skin after the iontophoresis delivery of those prodrugs or their parent drug ketoprofen from different iontophoresis conditions are summarized in Table 2. The high drug concentration in the skin can be used for treatment of skin diseases including skin cancers such as melanoma. […] The ketoprofen concentrations in the skin from the iontophoresis delivery was not higher than its IC50 against the melanoma cell growth, but the KCE and KME concentrations in the skin from the anode iontophoresis delivery were higher than their IC50 against the melanoma cell growth. Thus, the anode iontophoresis of the prodrugs can provide high drug accumulation in the skin, and such high drug accumulation in the skin can be used for skin disease treatment.

[2] = In-vitro side-by-side diffusion cell study, iontophoresis across human epidermis skin; assay type: in vitro ADME; settings: KCE 26.6 μmol/ml, PE 4.9 μmol/ml, 0.2 mA
Source text: The efficiency in anode iontophoresis delivery of KCE and that in cathode iontophoresis delivery of ketoprofen were compared with an in-vitro side-by-side diffusion cell study. […] The human cadaver epidermis skin was sandwiched between the two half cells with stratum corneum face the donor chamber. For anode iontophoresis of KCE, KCE chloride salt solution (26.6 μmol/ml) was placed in the donor cell. For cathode iontophoresis of ketoprofen (Kt), […] solution (26.6 μmol/ml) was placed in the donor cell. Phosphate buffer solution (0.15 M at pH 7.4) was placed in the receiver chamber. Constant current 0.2 mA was applied to the diffusion cell. The amount of drug penetrated through the skin was collected in the receive chamber and analyzed with a HPLC. The anode iontophoresis of the cationic prodrug KCE delivered 4 times more drug across the skin than that delivered by the cathode iontophoresis of ketoprofen (see FIG. 4A) from the in-vitro study.
Anode iontophoresis of the cationic ketoprofen prodrug KCE (26.6 μmol/ml) with the presence of phenylephrine (PE) (4.9 μmol/ml) in solution was evaluated with an in-vitro diffusion cell study across a human epidermis skin.

[3] = Iontophoresis delivery into hairless rat knee joint: tissue and plasma drug concentrations; assay type: in vivo; settings: 0.4 mA/cm^2 for 20 min on knee
Procedure: Hairless rats were anaesthetized with isoflurane. A rubber disk shape applicator with a sponge that can hold 0.5 ml of the drug solution was used and a button Ag/AgCl electrode was used as current driving electrode. The delivery area is about 1.2 cm^2. After drug solution was loaded into the sponge, the applicator was placed on the knee cap skin and applied an electric current at 0.4 mA/cm^2 for 20 min. A return electrode was attached to the upper tail of the rat. After that, the skin was cleaned thoroughly with wet Kim wipes. The tissues (skin, muscle and joint) at the application site knee and also the contralateral site knee were collected at 30 min, 2 hr, 4 hr or 6 hr from the start of iontophoresis delivery. Three animals were used for each time point. Blood samples were also collected at appropriate time points. The tissue and blood samples were stored at −80° C. until further processing.

[4] = test system: knee arthritis pain model (monosodium iodoacetate); experiment: MIA knee osteoarthritis rat model treated with iontophoresis; assay type: in vivo; settings: 0.4 mA/cm^2 for 20 min on days 1, 2, 3 after MIA; versus iontophoresis of NaCl
Procedure: A knee arthritis pain model was established by injection of 50 μl of 60 mg/ml monosodium iodoacetate (MIA) into the left hind knee joint of 12 hairless rats, and they were divided into three groups. The knee diameters of both hind knees were measured. The difference in knee diameters between the left knee and right knee was used as the indicator of the swelling (or inflammation) of the left knee. In addition, the weight bearing of each hind limb was also measured with a Linton incapacitance tester. The percentage of the weight bearing by the left leg was used as an indicator of the pain level in the knee. At 1 day, 2 days, 3 days after the injection of MIA, the left knee of the rats in group 1 was treated with iontophoresis of NaCl to the left hind knee at 0.4 mA/cm^2 for 20 min, group 2 treated with iontophoresis of Kt to the left hind knee at 0.4 mA/cm^2 for 20 min, and group 3 treated with iontophoresis of KCE to the left hind knee at 0.4 mA/cm^2 for 20 min. The knee diameter and weight bearing were measured at day 0 before the MIA injection, and also at day 1, 2, and 3 after the MIA injection but before the iontophoresis treatment. They were also measured at day 4, 6, and 10 after the MIA injection.

[5] = iontophoresis 0.057 mA/cm^2 for 6 hrs
[6] = iontophoresis 0.4 mA/cm^2 for 2 hrs
[7] = iontophoresis 0.4 mA/cm^2 for 6 hrs

Row | Structure (SMILES) | Plasma and contralateral tissue drug concentration ([1]; 0.057 mA/cm^2 for 6 hours) | Tissue drug concentrations / direct penetration at the application site ([1]; 0.057 mA/cm^2 for 6 hours) | Drug in tissues at the contralateral site ([1]; 0.4 mA/cm^2 for 2 hours) | Plasma drug concentration ([1]; 0.4 mA/cm^2 for 2 hours) | Tissue drug concentrations / direct penetration at the application site ([1]; 0.4 mA/cm^2 for 2 hours) | Drug in tissues at the contralateral site ([1]; 0.4 mA/cm^2 for 6 hours) | Plasma drug concentration ([1]; 0.4 mA/cm^2 for 6 hours) | Tissue drug concentrations / direct penetration at the application site ([1]; 0.4 mA/cm^2 for 6 hours) | Drug concentration in the skin [1, 5] | Concentration of ketoprofen converted from the prodrug in the skin [1, 5] | Drug concentration in the skin [1, 6] | Concentration of ketoprofen converted from the prodrug in the skin [1, 6] | Drug concentration in the skin [1, 7] | Concentration of ketoprofen converted from the prodrug in the skin [1, 7] | IC50 (melanoma cell (A375); A375 cells) | Amount penetrated across the skin by anode iontophoresis, KCE alone versus KCE with phenylephrine [2] | IC50 (melanoma cell (A375); Homo sapiens, A-375, A375 cells) | Plasma Kt concentration [3] | Knee swelling (knee diameter difference left vs right) [4] | Weight bearing of the left leg (pain indicator) [4]
1 | CC(C[N+](C)(C)C)OC(=O)C(C)c1cccc(C(=O)c2ccccc2)c1.[Cl-] (stereo not drawn) [KME, Ketoprofen β-methylcholine ester chloride salt] | we can detect the parent drug Kt in the plasma and also in the contralateral tissue | direct penetration into deep tissues that is up into the deep muscles | no ketoprofen or KME was detected in the tissues at the contralateral site | no ketoprofen or KME in rat plasma was detected | direct penetration into deep tissues and prodrug retaining in the tissues of the application site | No prodrug or Kt was detected in the contralateral tissues | No prodrug or Kt was detected in the plasma | High prodrug KME concentrations in the tissues of the drug application | 3725 μmol per kilogram of skin | 73 μmol per kilogram of skin | 6128 μmol per kilogram of skin | 35 μmol per kilogram of skin | 34768 μmol per kilogram of skin | 449 μmol per kilogram of skin | 1550 µM | – | – | – | – | –
2 | CNC[C@H](O)c1cccc(O)c1 [PE, phenylephrine, reference compound] | – | – | – | – | – | – | – | – | – | – | – | – | – | – | – | Significant amount of PE was also delivered across the skin | – | – | – | –
3 | CC(C(=O)OCCCN(C)C)c1cccc(C(=O)c2ccccc2)c1.Cl (stereo not shown) [KPE] | – | – | – | lower than that from iontophoresis of Kt | Higher drug concentrations in the tissues at the drug application site than those from the contralateral site | – | – | – | – | – | 1883 μmol per kilogram of skin | 736 μmol per kilogram of skin | – | – | – | – | – | – | – | –
4 | CC(C(=O)O)c1cccc(C(=O)c2ccccc2)c1 (stereo not shown) [Ketoprofen, reference compound] | – | only achieved skin deep penetration with no direct penetration into subcutaneous, shallow muscle or deep muscle tissue | – | – | only achieved skin deep penetration with no direct penetration into subcutaneous, shallow muscle or deep muscle tissue | – | high | can only penetrate skin deep | 59 μmol per kilogram of skin | – | 378 μmol per kilogram of skin | – | 417 μmol per kilogram of skin | – | – | – | 1400 µM | high initial plasma Kt concentration than iontophoresis of the cationic prodrug KCE | not as effective | not as effective
